Common to all, as to assay: growth of human tumour cells (NCI), 48 h
Assay [1] deals with HL-60(TB) leukemia.
Assay [2] deals with M14 melanoma.
Assay [3] has as its system NCI-H460 lung.
Assay [4] has as its system RXF 393 renal.
For assay [5], the system named is SK-MEL-2 melanoma.
Assay [6] relates to SK-MEL-28 melanoma.
The subject of assay [7] is SNB-19 CNS.
For assay [8], the system named is SNB-75 CNS.
For assay [9], the system named is UACC-62 melanoma.
For assay [10], the system named is EKVX NSCLC.

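Cultured in 96-well plates, cells were exposed to test compound for 48 hours across five concentrations. Here, GI50 denotes the concentration required for 50% inhibition of growth. Definition used: TGI = concentration required for complete inhibition of growth.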 Some results are limits rather than exact numbers.

In the case of `Cc1ccc(C2=NN(c3ccc(S(N)(=O)=O)cc3)C(c3cn(-c4ccccc4)nc3-c3ccccc3)C2)cc1` (centres undefined), the GI50 in assay [1] is 44000 nM; in [2], 8.54 µM; in assay [3], 4220 nM; in assay [4], 3810 nM; in [5], 43.7 µM; in assay [6], 39.2 µM. Also, the GI50 is over 100000 nM in assay [7], 80500 nM in assay [8] and 32400 nM in assay [9]. The TGI in assay [1] is over 100 µM; in assay [2] it was over 100 µM; in assay [3] it was over 100 µM; in [4] it was 17.8 µM; in assay [5], over 100 µM; in assay [6], over 100 µM. For the same compound, the TGI in assay [7], in assay [8] and in assay [9] was over 100 µM in each case.

Consider `C/C(=C\c1ccn(-c2ccc(N)cc2F)n1)[C@@H]1C[C@@H]2O[C@]2(C)CCC[C@H](C)[C@H](O)[C@@H](C)C(=O)C(C)(C)[C@@H](O)CC(=O)O1`, for which the GI50 in [10] is 360 nM; in assay [1], 17.4 nM; in assay [3], 19.7 nM; in assay [4] it was 28.6 nM; in assay [5], 0.0518 µM; in assay [6], 1.05 µM. Moreover, the GI50 in assay [7] is 242 nM; in assay [8] it was 7.66 nM; in assay [9] it was 91.4 nM. Moreover, the TGI in [10] was over 50 µM; in [1], 0.859 µM; in [3], over 50 µM; in assay [4] it was 0.404 µM; in assay [5] it was over 50 µM; in assay [6], over 50 µM. The TGI in assay [7] is over 50 µM; in assay [8], 0.206 µM; in assay [9] it was over 50 µM.

For `O=C(O)c1ccccc1Nc1ccc2nnc(-c3ccncc3)n2n1`, the GI50 in assay [1] is 32500 nM; in assay [2] it was 7.03 µM; in [3], 4270 nM; in [4], 3180 nM; in [5] it was 3.15 µM; in assay [6], 12.7 µM. For the same compound, the figures for the GI50 in assay [7], in assay [8] and in [9] were 14200 nM, 12200 nM and 5180 nM, respectively. Also, the TGI in [1] is over 100 µM; in [2], 40.9 µM; in assay [3], 24 µM; in assay [4], 9.98 µM; in assay [5] it was 9.08 µM; in assay [6], 29.6 µM. Moreover, the figures for the TGI in assay [7], in [8] and in [9] were 40.8 µM, 25 µM and 19.5 µM, respectively.

Regarding `c1ccc2c(CNCCCCCCCCCCCCNCc3cccc4ccccc34)cccc2c1`, the TGI in assay [10] was 9.59 µM; in assay [1], 3.12 µM; in assay [2] it was 3.29 µM; in [3] it was 2.95 µM; in assay [4], 2.66 µM; in assay [5] it was 2.93 µM. Besides, the TGI in assay [6] is 3.38 µM; in assay [8], 3.21 µM; in [9], 3.35 µM.

Take `O=S(=O)(Nc1ccccn1)c1ccc(N=Nc2ccc(O)c3ncccc23)cc1`: the GI50 was 770 nM in assay [1]; 1.21 µM in [2]; 891 nM in [3]; 1240 nM in [4]; 0.463 µM in [5]; 1.72 µM in assay [6]. Further, the GI50 is 771 nM in [7], 675 nM in [8] and 582 nM in assay [9]. In addition, the TGI in assay [1] stood at 2.61 µM; in assay [2] it was 5.55 µM; in assay [3], 4.59 µM; in assay [4], 11.9 µM; in [5] it was 1.64 µM; in [6], 26 µM. For the same compound, the TGI in assay [7] was over 53.3 µM; in assay [8], 3.33 µM; in assay [9], 3.03 µM.

As for `COC1CC(OC)C(O)C(CO)O1` (centres undefined), the TGI in assay [10], in assay [1], in [2], in assay [3], in [4] and in assay [5] was over 100 µM in each case. Moreover, the TGI in [6], in assay [8] and in [9] was over 100 µM throughout.

Turning to `COC(=O)Cc1cc(=O)n2c([nH]c3ccccc32)c1C#N`, the TGI in [10], in [1], in assay [2], in [3], in assay [4] and in assay [5] was over 100 µM in each case. Moreover, the TGI in [6], in assay [7] and in [8] was over 100 µM throughout.

For `Fc1cccc(-c2[nH]nc3nc(Nc4cccnc4)sc23)c1`, the GI50 in assay [10] was 6750 nM; in assay [1] it was 1240 nM; in [2], 11.3 µM; in [3], 2380 nM; in [4] it was 3100 nM; in assay [5] it was 42.2 µM. Also, the GI50 in [6] is 17.5 µM; in assay [8], over 100000 nM; in assay [9], over 100000 nM. Further, the TGI in assay [10], in [1], in [2], in assay [3], in assay [4] and in assay [5] was over 100 µM throughout. Also, the TGI in assay [6], in [8] and in assay [9] was over 100 µM each time.

For `Nc1nc(=Nc2ccccc2)ss1`, the TGI is over 100 µM in assay [10]; 60.2 µM in assay [1]; over 100 µM in assay [2]; over 100 µM in assay [3]; over 100 µM in assay [4]; over 100 µM in assay [6]. For the same compound, the TGI in assay [7], in [8] and in assay [9] was over 100 µM each time.

As for `COC1=C(OC)[C@]2(OC)c3c(O)c(OC)c4c(c3O[C@@]23O[C@@H](c2ccccc2)CC=C3C1=O)[C@@H](O)C[C@H](c1ccccc1)O4`, the GI50 is 1690 nM in assay [10]; 177 nM in assay [1]; 0.358 µM in assay [2]; 1420 nM in assay [3]; 199 nM in assay [4]; 0.318 µM in assay [6]. Also, the GI50 in assay [7] is 2110 nM; in [8], 693 nM; in assay [9], 326 nM. For the same compound, the TGI in assay [10] turned out to be 3.08 µM; in [1] it was 0.627 µM; in [2] it was 1.17 µM; in assay [3] it was 2.97 µM; in assay [4], 0.406 µM; in assay [6] it was 1 µM. In addition, the TGI in [7] turned out to be 9.69 µM; in assay [8], 1.98 µM; in [9] it was 1.3 µM.
